Measured values from patent US8630703B2, “Treatment utilizing hydrophobic weak bases chemotherapeutic agents and illumination” (Technion Research & Development Foundation Limited, priority 2011, dated 2014).
Values joined by “and” are separate entries in the source; they are usually repeats but may differ in a detail not shown here. Identical values can stand only once.

How the values were obtained:
A549/K1.5 cells [1] = assay: Live cell fluorescent imaging (lysosomal localization and photodestruction); type: cell-based, Human; conditions: A549/K1.5; 470 nm microscope illumination
Experimental: (§1) Lysosomes and mitochondria were stained by incubating the cells 100 nM LysoTracker® Red or 100 nM MitoTracker® Red, respectively, for 1 hour. For subcellular localization of C-1330, cells were also stained with 10 μM C-1330 for 30 minutes.
(§2) Nuclear staining was performed prior to fluorescence imaging by replacing the growth medium with medium containing 2 μg/ml Hoechst 33342, followed by incubation for 10 minutes. Prior to nuclear staining, A549/K1.5 cells were incubated for 1 hour with 10 μM fumitremorgin C (FTC) to prevent efflux of Hoechst 33342 by ABCG2.
(§3) Live cell fluorescent imaging was performed using an Axiovert 200 inverted fluorescence microscope (Carl Zeiss) equipped with a digital camera. […] Light intensity was maintained at 12.5% of the maximum. The magnification used was ×630.
(§4) Cells were pre-incubated with 10 mM ammonium chloride for 30 minutes or with 1 μM bafilomycin A1 for 60 minutes, prior to being incubated with 10 μM C-1330 for 30 minutes as described hereinabove. Ammonium chloride and bafilomycin A1 remained present during the incubation with C-1330.
A549/K1.5 cells were incubated with 10 μM doxorubicin for 30 minutes, and then observed and illuminated (at 470 nm) by live cell fluorescent imaging as described in the Materials and Methods section. Upon illumination, the cells were photographed every second, in order to observe changes in the cells over time.

A549/K1.5 cells [2] = assay: Crystal violet staining of illuminated monolayers; type: cell-based, Human; conditions: 10 μM 30 min, 470 nm 1 minute, 48 hours after illumination
Experimental: (§5) A549 and A549/K1.5 cells were grown to full confluence on glass-bottom plates and loaded with 10 μM C-1330 for 30 minutes. Before illumination, the spent medium was replaced by fresh medium. Using the inverted fluorescence microscope as a source of illumination, each plate was illuminated for 1 minute at a wavelength of 470 nm, at an intensity of approximately 3 W/m^2. Cells were then incubated at 37° C. for an additional 48 hours. The cells were then washed twice with PBS, fixed with 70% methanol for 10 minutes and stained with a diluted dye solution (1:5) of crystal violet. Stained monolayer cells were then washed three times with double distilled water. Crystal violet-stained cells were then examined and photographed using an M80 binocular at a x8 magnification (Leica Microsystems GmbH), and by an inverted Cell-Observer microscope, at a x1000 magnification (Carl Zeiss).
(§6) Monolayers of A549 and A549/K1.5 cells were pulse-incubated with C-1330 for 30 minutes, washed with drug-free medium, subjected to illumination for 1 minute with a fluorescence microscope, and incubated for 48 additional hours in growth medium. The confluent monolayers were then washed with PBS, fixed with methanol, and stained with crystal violet. The monolayers were then examined by light microscopy.

A549 cells [3] = assay: Crystal violet staining of illuminated monolayers; type: cell-based, Human; conditions: 10 μM 30 min, 470 nm 1 minute, 48 hours after illumination
Experimental: as §5, §6

A549 cells [4] = assay: XTT cytotoxicity of C-1330 after chloroquine treatment, with and without illumination; type: cell-based, Human
Experimental: A549 cells were seeded in 96-well plates at a concentration of 500 cells/well for the 48 hour chloroquine treatment, or at a concentration of 1000 cells/well for the 24 hour chloroquine treatment, in a total volume of 100 μl of medium per well. Following an overnight incubation, chloroquine was then added at the indicated concentrations for 24 or 48 hours. Lysosomes were then stained with LysoTracker® Red, detected by fluorescent imaging as described hereinabove, and quantified using EZQuant software. […]

A549/K1.5 cells [5] = assay: XTT cytotoxicity assay with and without illumination; type: cell-based, Human
Experimental: Human non-small cell lung cancer A549 cells and their ABCG2-overexpressing MDR (multi-drug resistant) A549/K1.5 sub-line; ovarian carcinoma cell line 2008 and its stable MRP1-transfectant 2008/MRP1; and human non-small lung cancer cell line SW1573 and its ABCB1-overexpressing subline SW1573/2R160) were maintained in RPMI-1640 medium supplemented with 10% fetal bovine serum, 2 mM glutamine, 100 μg/ml penicillin and streptomycin (Biological Industries, Beth-Haemek, Israel) in a humid atmosphere containing 5% CO2 at 37° C.
(§7) Parental cells and their MDR (multi-drug resistant) sub-lines were seeded in 96-well plates (2×10^4 cells/well in 90 μl growth medium/well). […] Following incubation for 2 hours, the drug-containing medium was replaced by drug-free medium. The cells were then placed on an illuminator plate (Model 460, thin line series, S&S X-Ray Products Inc., Brooklyn, N.Y.) for 1 hour, thereby achieving a light dose of 5 J/cm^2 white light. After illumination, plates were further incubated for an additional 24 hours.
Cell viability was determined using an XTT (2,3-bis-(2-methoxy-4-nitro-5-sulfophenyl)-2H-tetrazolium-5-carboxanilide) Cell Proliferation Kit (Biological Industries). The drug concentrations required to inhibit cell growth by 50% (i.e., IC50 values) were determined from the cell survival curves in the absence and in the presence of illumination. Results are presented as mean values of at least three independent experiments.

A549 cells [6] = assay: as above
Experimental: as §7
Cell viability was determined using an XTT (2,3-bis-(2-methoxy-4-nitro-5-sulfophenyl)-2H-tetrazolium-5-carboxanilide) Cell Proliferation Kit (Biological Industries). […] Results are presented as mean values of at least three independent experiments.

A549 cells [7] = assay: Texas Red-phalloidin staining of F-actin; type: cell-based, Human; conditions: 10 μM 30 minutes
Experimental: A549 cells were grown on coverslips in 24-well plates until confluence was reached. Cells were then incubated with 10 μM C-1330 for 30 minutes and then exposed to light for 1 minute, in order to achieve lysosomal photodestruction. Control cells were loaded with C-1330 but were not illuminated. C1330-loaded cells were ether fixed and stained with Texas Red®-X Phalloidin (Life Technologies) with no illumination or stained with Texas Red®-X Phalloidin 2 hours after illumination. Cells were then washed twice with PBS and fixed by adding 4% formaldehyde for 10 minutes at room temperature. Following two additional washes with PBS, 0.1% Triton X-100 was added for 10 minutes, and then washed twice to remove the Triton X-100. Blocking was then achieved using a solution of 20% skim milk and 2.5% fetal calf serum for 20 minutes. At this stage, 5 μl of Texas Red®-X Phalloidin stock solution was added to 0.2 ml of PBS and the samples were incubated for 20 minutes while being protected from light. The samples were finally rinsed to remove excess Texas Red®-X Phalloidin. Coverslips were removed gently from wells and attached onto slides using Fluoromount-G. Fluorescent cells were analyzed by a fluorescence microscope, using an excitation wavelength of 545 nm and an emission wavelength of 605 nm.

A549 cells [8] = assay: XTT cytotoxicity of C-1330 after chloroquine treatment, with and without illumination; type: cell-based, Human; conditions: 24 hours
A549 cells [9] = assay: Live cell fluorescent imaging (lysosomal localization and photodestruction); type: cell-based, Human; conditions: 470 nm microscope illumination
Experimental: as §1, §2, §3, §4
Monolayers of A549 cells were grown in glass-bottom plates and were washed in growth medium. The medium was then replaced with a special isotonic balanced salt solution lacking or containing either N,N′-dimethylthiourea (DMTU), a potent hydroxyl radical and hydrogen peroxide scavenger, L-histidine, a hydroxyl radical and singlet oxygen radical (^1O2) scavenger, or sodium azide, a singlet oxygen radical scavenger. The salt solution consisted of 10 mM HEPES pH 7.4, 120 mM NaCl, 5 mM KCl, 1 mM CaCl2, 1 mM MgCl2, and 25 mM glucose. After incubation for 1 hour, C-1330 was added to the aforementioned solution buffer for an additional 30 minutes, during which the scavengers remained present, in order to load lysosomes. The cells were then examined by fluorescent imaging as described hereinabove.

[10] = chloroquine 20 (μM), 24 hours, no illumination
[11] = chloroquine 20 (μM), 48 hours, no illumination

## CCN(CC)CCNc1ccc2ncn3c4ccc(OC)cc4c(=O)c1c23 [C-1330]
A549/K1.5 cells [1]
  lysosomal photodestruction upon blue light illumination: continuous disappearance of lysosomes
A549/K1.5 cells [2]
  appearance of illuminated area of monolayer (crystal violet): region of lysed cells
A549 cells [3]
  appearance of illuminated area of monolayer (crystal violet): region of lysed cells
A549 cells [4]; 20 μM chloroquine 48 hours, FIG. 12C dotted line, no illumination
  cell death without illumination at the indicated concentration (LD10): approximately 10%
A549 cells [4]; 20 μM chloroquine 48 hours, FIG. 12C dotted line, white light
  cell death with illumination at the indicated concentration (LD90): ~90%
A549 cells [4]; chloroquine 20 (nM), 24 hours
  Fold sensitization: 23
A549 cells [4]; chloroquine 20 (nM), 48 hours
  Fold sensitization: 49
A549 cells [4]; chloroquine 20 (μM), 24 hours
  C-1330 LD50 Illumination: 0.648 ± 0.065 µM
  Survival at 3000 nM Illumination: 29% and 29 ± 07%
A549 cells [4]; [10]
  C-1330 LD50 Control: 15.222 ± 0.378 µM
  Survival at 3000 nM Control: 79% and 79 ± 5%
A549 cells [4]; chloroquine 20 (μM), 48 hours
  C-1330 LD50 Illumination: 0.7 ± 0.043 µM
  Survival at 3000 nM Illumination: 9% and 9 ± 3%
A549 cells [4]; [11]
  C-1330 LD50 Control: 34.137 ± 3.084 µM
  Survival at 3000 nM Control: 88% and 88 ± 8%
A549 cells [4]; chloroquine 50 (nM), 24 hours
  Fold sensitization: 31
A549 cells [4]; chloroquine 50 (μM), 24 hours
  Survival at 3000 nM Illumination: 23 ± 2%
A549 cells [4]; chloroquine 50 (μM), 24 hours, no illumination
  C-1330 LD50 Control: 19.609 ± 2.454 µM
A549 cells [4]; chloroquine 100 (nM), 24 hours
  Fold sensitization: 30
A549 cells [4]; chloroquine 100 (μM), 24 hours
  Survival at 3000 nM Illumination: 19 ± 3%
A549 cells [4]; chloroquine 100 (μM), 24 hours, no illumination
  Survival at 3000 nM Control: 90 ± 9%
A549/K1.5 cells [5]; A549/K1.5, 3 μM
  difference in survival of illuminated and non-illuminated cells: 59%
A549/K1.5 cells [5]; A549/K1.5, FIG. 9B dotted line, no illumination
  cell death without illumination at the indicated concentration (LD10): approximately 10%
A549/K1.5 cells [5]; A549/K1.5, FIG. 9B dotted line, white light
  cell death with illumination at the indicated concentration (LD70): ~70%
A549/K1.5 cells [5]; A549/K1.5, control vs illumination
  Fold sensitization: 14
A549/K1.5 cells [5]; A549/K1.5, no illumination
  LD50 Control: 12.269 ± 1.119 µM
  Survival at 3000 nM Control: 87 ± 4%
A549/K1.5 cells [5]; A549/K1.5, white light 1 hour (5 J/cm^2)
  LD50 Illumination: 850 ± 23 nM
A549/K1.5 cells [5]; A549/K1.5, white light illumination
  Survival at 3000 nM Illumination: 28 ± 1%
A549/K1.5 cells [5]; no illumination
  resistance of A549/K1.5 cells compared to parental A549 cells: 2.5 fold
A549 cells [6]; 3 μM
  difference in survival of illuminated and non-illuminated cells: 29%
A549 cells [6]; control vs illumination
  Fold sensitization: 6
A549 cells [6]; no illumination
  Survival at 3000 nM Control: 72% and 72 ± 5%
A549 cells [6]; no illumination, 2 h drug, XTT 24 h later
  LD50 Control: 5.023 ± 0.716 µM
A549 cells [6]; white light 1 hour (5 J/cm^2)
  LD50 Illumination: 842 ± 208 nM
A549 cells [6]; white light illumination
  Survival at 3000 nM Illumination: 43% and 43 ± 6%
A549 cells [7]; 2 hours after illumination
  actin cytoskeleton after illumination: devoid of cytoplasmic content and actin cytoskeleton
A549 cells [7]; no illumination
  actin cytoskeleton without illumination: retained a normal actin cytoskeleton
A549 cells [8]; chloroquine 50 (μM)
  C-1330 LD50 Illumination: 0.637 ± 0.174 µM
A549 cells [8]; chloroquine 50 (μM), no illumination
  Survival at 3000 nM Control: 92 ± 7%
A549 cells [8]; chloroquine 100 (μM)
  C-1330 LD50 Illumination: 0.498 ± 0.064 µM
A549 cells [8]; chloroquine 100 (μM), no illumination
  C-1330 LD50 Control: 15.048 ± 2.886 µM
A549 cells [9]
  lysosomal photodestruction upon blue light illumination: continuous disappearance of lysosomes
